Results published in patent US20250177478A1, “G ALPHA Q/11 INHIBITORS FOR USE AS AN ANALGESIC” (University of Florida Research Foundation, Incorporated, priority 2022, published 2025).
Positions of bridges follow the written chain, without caps; N, C: chain ends. Non-standard residues stand in square brackets, D forms with d. Residues, ends and D or L forms follow the SMILES beside them. Leu(3R-O(AcLeu(3R-OH))) = CC(=O)N[C@H](C(=O)O[C@H](C(C)C)[C@H](N)C(=O)O)[C@H](O)C(C)C; NMeT = CN[C@H](C(=O)O)[C@@H](C)O; dPhLac = O=C(O)[C@H](O)Cc1ccccc1; NMeA = CN[C@@H](C)C(=O)O; NMeDha = C=C(NC)C(=O)O

Assays:
C57BL/6 mice [1] = test: Tail immersion test (54° C), spinal analgesia; type: in vivo, mouse; conditions: for anti-nociceptive response in tail flick (tail immersion) test: subcutaneous
Excerpt: (§1) A. Experimental animals. C57BL/6 mice (6-8 weeks old) of both sexes were used. Mice were housed in groups on a 12-h light-dark cycle (6:00 am light cycle; 6:00 pm dark cycle) with food (Teklad Global 16% protein rodent diets; Envigo Inc., WI, USA) and water available ad libitum. Animal groups were compiled to ensure minimization of factors (e.g., weight, sex, and health). Mice were within 20-28 g in weight at start of all studies. All tested groups contained a control group and consisted of male and female mice. Males and females were tested on the same day but at different times so that they were not in the room at the same time. All the experiments were tested during the light cycle between 8:00 am and 3:00 pm to avoid any long-term disruption of sleep cycles. Mice were transferred to the behavioural testing room at least 45 min before the first test to acclimatize. Following behavioural evaluation, animals were killed by CO2 inhalation, followed by cervical dislocation and postmortem decapitation.
(§2) B. Drug treatments. […] The dose of YM-254890 for subcutaneous injection was taken from previous published studies. The dose of morphine selected for subcutaneous administration (2.5, 5 and 10 mg kg-1) is commonly used in mouse analgesia. For the combined administration of morphine and YM-254890 on thermal anti-nociception, YM-254890 was administered 10 min before the morphine. The latency of response was measured before injection of drugs (baseline latency response) and at different time intervals (post-treatment latency response) after drugs injection.
C. Intrathecal injections. Intrathecal (i.t.) administration was performed following the method described previously (Hylden J L et al. “Intrathecal morphine in mice: a new technique.” Eur J Pharmacol (1980) 67:313-316; Li D et al. “Direct Intrathecal Injection of Recombinant Adeno-associated Viruses in Adult Mice.” J Vis Exp (2019)) with slight modifications. All intrathecal injections were performed using a 25 μL Hamilton syringe with a 30-gauge needle. The injection volume was 5 μL for each mouse. […] Each solution was injected without injection cannulae. Intrathecal injections were made into the L5-L6 intervertebral space of unanesthetized mice. The flick of the tail was considered indicative of a successful i.t. administration.
(2) Tail Immersion test. Anti-nociception induced by YM-254890 or evaluation of morphine's analgesic effects was determined by tail immersion test. The test was performed as previously described (Wang et al. 2019). Individual mice were transferred to experimentation room and restrained using a well-ventilated 50-ml tube with air holes. In order to minimize handling and to facilitate both the drug delivery and testing, each mouse was comfortably positioned in the plastic restrainer tubes with both fore paws and hind paws extending through holes at the bottom of the restrainer. All animals were habituated to restraint 1 h for 3 days prior to behaviour test. […] Once the animal was immobilized (within 25-30 s), two thirds of the entire tail was dipped in water bath heated to 54° C.

C57BL/6 mice [2] = test: Hot plate test (52.5° C), anti-nociception; type: in vivo, mouse
Excerpt: as §1, §2
D. Intracerebral injections. Intracerebroventricular administration was performed following the method described previously with slight modifications (Haley T J et al. “Pharmacological effects produced by intracerebral injection of drugs in the conscious mouse.” British Journal of Pharmacology and Chemotherapy, (1957) 12:12-15; Narita M et al. “Reduced expression of a novel μ-opioid receptor (MOR) subtype MOR-1B in CXBK mice: Implications of MOR-1B in the expression of MOR-mediated responses.” The European Journal of Neuroscience (2003) 18:3193-3198)). On the day of the drug/vehicle injection or on the day of behavioural test, the mouse was secured at the nape of the neck and head by the investigator's thumb and forefinger, and head of the mouse was held against a V-shaped holder. A 27-gauge hypodermic needle attached with 25 μL. Hamilton microsyringe was inserted perpendicularly into the unilateral injection site into the hole with the depth of 3.5 mm. The injection volume was 4 μL.
(1) Hot Plate test. Animals were tested for the assessment of anti-nociception and analgesic effects of morphine using a hotplate set to 52.5° C. The assay was performed as described previously (Bannon A W et al. “Models of nociception: Hotplate, tail-flick, and formalin tests in rodents.” In Current Protocols in Neuroscience, Chapter 8: Unit 8.9. Wiley (2007); Wang D et al. “Genetic behavioral screen identifies an orphan anti-opioid system.” Science (2019) 365:1267-1273). Mice were placed in a Plexiglas chamber (16″ tall and 8″ in diameter) on a ceramic plate heated to 52.5° C. and the timer started.

[3] = YM-254890 0.5 mg·kg−1 s.c. 10 min before morphine 5 mg/kg s.c.
[4] = YM-254890 s.c. with morphine 5 mg/kg s.c., all animals

In the case of `C=C1C(=O)N[C@@H](C)C(=O)N(C)[C@@H](C)C(=O)N[C@@H]([C@H](OC(=O)[C@@H](NC(C)=O)[C@H](O)C(C)C)C(C)C)C(=O)N(C)[C@@H]([C@@H](C)OC)C(=O)O[C@H](C)[C@H](NC(C)=O)C(=O)O[C@H](Cc2ccccc2)C(=O)N1C` [YM-254890] (Ac-T[dPhLac][NMeDha]A[NMeA][Leu(3R-O(AcLeu(3R-OH)))][NMeT](Me); ester 1-C), the “effect on morphine analgesia, tail immersion test” value (C57BL/6 mice [1]; YM-254890 0.25 mg kg-1 s.c. 10 min before morphine 5 mg/kg s.c.) is reported as “eliminated this effect”, the “effect on morphine analgesia, tail immersion test” value (C57BL/6 mice [1]; [3]) is reported as “significant enhancement of the anti-nociceptive effects of morphine” and the “time to return to baseline nociception, tail immersion test” value (C57BL/6 mice [1]; YM-254890 alone, intrathecal, 3.0 and 4.5 nmol) is reported as “about 2 h”. The “magnitude of anti-nociceptive effect upon increasing the dose, tail immersion test” value (C57BL/6 mice [1]; YM-254890 alone, intrathecal, 3.0 to 4.5 nmol (ceiling effect)) was “did not change”, the “anti-nociception in tail immersion test, intrathecal” value (C57BL/6 mice [1]; YM-254890 alone, intrathecal, doses above 1.5 nmol per injection) was “significant anti-nociceptive properties” and the “anti-nociceptive response in tail flick (tail immersion) test” value (C57BL/6 mice [1]; YM-254890 alone, highest dose 1 mg·kg−1) was “significant anti-nociceptive response”. For the same compound, the “anti-nociceptive response in tail flick (tail immersion) test” value (C57BL/6 mice [1]; YM-254890 alone, lower doses (0.1, 0.3, 0.5 mg/kg)) was “no significant difference in nociceptive response”, the “effect on systemic morphine analgesia, tail immersion test” value (C57BL/6 mice [1]; YM-254890 intrathecal 0.5 nmol (lowest subthreshold dose) 10 min before morphine 2.5 mg/kg s.c.) was “significantly enhance the anti-nociceptive effects of morphine” and the “dose dependence of enhancement of morphine analgesia, tail immersion test” value (C57BL/6 mice [1]; YM-254890 intrathecal 0.5, 1.5, 3.0, 4.5 nmol with morphine 2.5 mg/kg s.c.) was “increased dose dependently until maximizing at the cut-off value for the test”. For the same compound, the “maximal extent and duration of morphine analgesia, tail immersion test” value (C57BL/6 mice [1]; YM-254890 intrathecal, at each of the doses, with morphine 2.5 mg/kg s.c.) was “both the maximal extent and duration of the analgesic effects of morphine were increased”, the “effect on opioid-induced analgesia, hotplate test” value (C57BL/6 mice [2]; YM-254890 0.25 mg·kg−1 s.c. (subthreshold) 10 min before morphine 5 mg/kg s.c.) was “significantly potentiated anti-nociceptive effects” and the “effect on opioid-induced analgesia, hotplate test” value (C57BL/6 mice [2]; [3]) was “further enhancement of opioid analgesia”. The “effect on onset timing and duration of opioid analgesia, hotplate test” value (C57BL/6 mice [2]; YM-254890 0.25 or 0.5 mg·kg−1 s.c. with morphine 5 mg/kg s.c.) was “no effect on either the onset timing or duration of the opioid analgesia”, the “time of maximal analgesic response after injection, hotplate test” value (C57BL/6 mice [2]; YM-254890 alone, subcutaneous, 0.5 and 1.0 mg·kg−1) was 30 min and the “paw withdrawal latencies in hotplate test” value (C57BL/6 mice [2]; YM-254890 alone, subcutaneous, higher doses 0.5 and 1.0 mg·kg−1) was “produced increases in paw withdrawal latencies”. For the same compound, the “paw withdrawal latencies in hotplate test” value (C57BL/6 mice [2]; YM-254890 alone, subcutaneous, lower doses 0.1 and 0.3 mg·kg−1) was “No significant effect”, the “analgesia in hotplate test after delivery directly into the brain” value (C57BL/6 mice [2]; YM-254890 i.c.v. 0.4, 1.2, 4 nmol) was “dose-dependent increase in both the extent and duration of analgesia” and the “time to reach maximal latencies, hotplate test” value (C57BL/6 mice [2]; [4]) was “about 30 min”. The “time to recover to baseline nociceptive thresholds, hotplate test” value (C57BL/6 mice [2]; [4]) was “about 3 h”.
